Assay results: patent US20210284621A1 (priority 2018, published 2021)

Experiments:
LPS-induced PBMCs = assay: Inflammatory cytokine release from LPS-induced PBMCs (Luminex); format: cell-based, human; details: fold change from LPS-treated PBMCs, compounds 10 μM (DEX 1 μg/ml) 2 h, then LPS 0.1 μg/ml 24 h, negative = reduced; for IL-12 (p70) / L-31: OOR = out of standard curve range
Method: Compounds of the invention were assayed for their effect on inflammatory cytokine release from lipopolysaccharides (LPS)-induced PBMCs, isolated from a human blood sample, the results of which are provided in Table 7 as fold change. Exemplary methods for quantifying secretion of inflammatory cytokines in PBMCs are known in the art, for example, as described in Hailer et al., Infection and Immunity. 68(2):752-759 (2000); and Merlini et al., Frontiers in Immunology. 7:614 (2016); each of which is incorporated herein by reference with respect to methods for evaluating cytokine release in PBMCs.
In brief, human blood samples from healthy volunteers were collected and PBMCs were isolated. PBMCs were cultured and each compound was assayed in triplicate at a final concentration of 10 μM for 2 hours. 1 μg/ml dexamethasone (DEX) served as a positive control. LPS was added at a final concentration of 0.1 μg/ml and further incubated for 24 hours. At the end of the incubation, the supernatants were collected and the levels of a panel of secreted cytokines were measured by a Human Magnetic Luminex® assay (R&D). The results in Table 7 are presented as a fold change from LPS-treated PBMCs. Reduced levels are expressed by negative values. OOR denotes values that are out of the standard curve range for the specific cytokine and thus, could not be accurately measured. Cytotoxicity was also determined. Compounds with cytotoxicity ≥50% was considered cytotoxic. Baseline cytotoxicity of untreated PBMCs was 17% and all compounds presented in Table 7 induced cytotoxicity below 25%.

CB1 receptor [1] = target: T1, CB1 receptor (Homo sapiens, UniProt P21554); assay: cAMP Assay #2: Hit Hunter cAMP assay, Gi-coupled agonist activity, CB1; format: cell-based; design: host or cells: PathHunter cell lines
T1 sequence (P21554 whole entry): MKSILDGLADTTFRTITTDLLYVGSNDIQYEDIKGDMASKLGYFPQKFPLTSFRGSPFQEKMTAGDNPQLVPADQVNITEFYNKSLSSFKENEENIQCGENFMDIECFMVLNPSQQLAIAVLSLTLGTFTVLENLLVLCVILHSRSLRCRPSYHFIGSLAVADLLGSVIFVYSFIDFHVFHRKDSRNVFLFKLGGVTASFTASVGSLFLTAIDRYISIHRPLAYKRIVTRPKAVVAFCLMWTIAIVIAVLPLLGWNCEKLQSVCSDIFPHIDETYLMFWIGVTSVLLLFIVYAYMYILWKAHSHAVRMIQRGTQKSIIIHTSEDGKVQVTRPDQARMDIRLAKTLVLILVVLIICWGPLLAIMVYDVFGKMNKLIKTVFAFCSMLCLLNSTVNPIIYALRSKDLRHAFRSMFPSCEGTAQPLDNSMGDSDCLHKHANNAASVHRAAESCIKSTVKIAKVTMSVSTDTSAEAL
Method: (§1) Compounds of the invention were assayed in the Hit Hunter® cAMP assay to determine Gi-coupled agonist activity on the CB1 and CB2 receptors, the results of which are provided in Table 5.
(§2) The Hit Hunter® cAMP assay monitors the activation of a GPCR via Gi and […] secondary messenger signaling in a homogenous, non-imaging assay format using a technology developed by DiscoverX called Enzyme Fragment Complementation (EFC) with β-galactosidase (β-Gal) as the functional reporter. […] ED is fused to cAMP and in the assay competes with cAMP generated by cells for binding to a cAMP-specific antibody. Active β-Gal is formed by complementation of exogenous EA to any unbound ED cAMP. Active enzymes can then convert a chemiluminescent substrate, generating an output signal detectable on a standard microplate reader.
(§3) cAMP Hunter cell lines were expanded from freezer stocks according to standard procedures. Cells were seeded in a total volume of 20 μL into white walled, 384-well microplates and incubated at 37° C. for the appropriate time prior to testing. cAMP modulation was determined using the DiscoverX Hit Hunter cAMP XS+ assay. For Gi agonist activity determination, cells were incubated with sample in the presence of EC80 forskolin to induce response (20 μM and 25 μM in the CB1 and CB2 assays, respectively). Media was aspirated from cells and replaced with 15 μL 2:1 HBSS/10 mM HEPES:cAMP XS+Ab reagent.
(§4) Intermediate dilution of sample stocks was performed to generate 4× sample in assay buffer. 5 μL of 4× compound was added to cells and incubated at 37° C. or room temperature for 30 or 60 minutes. Final vehicle concentration was 1%. Assay signal was generated through incubation with 20 μL cAMP XS+ED/CL lysis cocktail for one hour at room temperature. Microplates were read following signal generation with a PerkinElmer Envision™ instrument for chemiluminescent signal detection. Compound activity was analyzed using CBIS data analysis suite (Chem Innovation, CA). For agonist assays, percentage activity was calculated using the following formula: % Activity=100%×(1−(mean RLU of test sample−mean RLU of Max control ligand)/(mean RLU of vehicle control−mean RLU of Max control ligand). Control ligand was the non-selective CB1/CB2 agonist CP55,940.

CB1 receptor [2] = target: T1, CB1 receptor; assay: cell-based; design: host or cells: PathHunter cell lines
CB2 receptor [3] = target: T2, CB2 receptor (Homo sapiens, UniProt P34972); assay: cAMP Assay #2: Hit Hunter cAMP assay, Gi-coupled agonist activity, CB2; format: cell-based; design: host or cells: cAMP Hunter cell lines; details: for CB2 fold selectivity: Hit Hunter cAMP, CB1 EC50 / CB2 EC50
T2 sequence (P34972 whole entry): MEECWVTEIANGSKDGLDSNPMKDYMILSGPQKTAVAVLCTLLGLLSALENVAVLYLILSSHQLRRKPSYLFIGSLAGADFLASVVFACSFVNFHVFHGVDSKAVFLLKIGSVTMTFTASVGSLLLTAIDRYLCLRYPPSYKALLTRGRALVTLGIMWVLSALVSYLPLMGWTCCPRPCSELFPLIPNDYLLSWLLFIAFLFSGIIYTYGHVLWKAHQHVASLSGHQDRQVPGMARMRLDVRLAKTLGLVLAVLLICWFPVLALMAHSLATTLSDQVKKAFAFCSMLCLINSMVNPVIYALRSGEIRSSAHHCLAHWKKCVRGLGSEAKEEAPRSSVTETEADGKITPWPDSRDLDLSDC
Method: as §1, §2, §3, §4

CB2 receptor [4] = target: T2, CB2 receptor; assay: cell-based; design: host or cells: cAMP Hunter cell lines
Procedure, shortened: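 PathHunter β-Arrestin enzyme fragment complementation cells, EA-tagged β-Arrestin and PK-tagged receptor, exposed to compound for 90 to 180 minutes at 37° C. or room temperature, 1% vehicle. Chemiluminescence read 1 h after detection reagent; agonist % activity relative to vehicle and MAX control ligand.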

CB1 receptor [5] = target: T1, CB1 receptor; assay: CB1 competitive radioligand binding assay ([3H] SR141716A); design: expressed in transfected cells; host or cells: Chem-1 cells
Procedure, shortened: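 Chem-1 cells expressing human recombinant CB1 incubated 90 min at 37° C with 2.0 nM [3H]SR141716A and compound at 0.5 μM (1% DMSO) in HEPES pH 7.4 buffer with MgCl2, CaCl2, 0.2% BSA. Read-out is % inhibition of radioligand binding.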

CB2 receptor [6] = target: T2, CB2 receptor; assay: CB2 competitive radioligand binding assay ([3H] WIN-55,212-2); design: expressed in transfected cells; host or cells: CHO-K1 cells; details: for Fold Selectivity (CB1/CB2): Table 3, ratio of Ki CB1/CB2
Procedure, shortened: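 CHO-K1 cells expressing human recombinant CB2 were incubated with compound (0.05 μM, 1% DMSO) and 2.4 nM [3H]WIN-55,212-2 in 20 mM HEPES pH 7.0, 0.5% BSA for 90 min at 37 °C. Percent inhibition of radioligand binding was reported.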

[7] = PathHunter agonist mode, read-out: CB2 Activity (β-Arrestin)
[8] = PathHunter agonist mode, read-out: CB1 Activity (β-Arrestin)

Structure (SMILES) | IL17A (LPS-induced PBMCs) | IL-1β (LPS-induced PBMCs) | IL-4 (LPS-induced PBMCs) | IL-6 (LPS-induced PBMCs) | IL-8 (LPS-induced PBMCs) | IL-10 (LPS-induced PBMCs) | MCP-1 (LPS-induced PBMCs) | TNFα (LPS-induced PBMCs) | EC50 (CB1 receptor [1]) | EC50 (CB1 receptor [2]) | EC50 (CB2 receptor [3]) | CB2 fold selectivity (CB2 receptor [3]) | EC50 (CB2 receptor [4]; [7]) | Ki (CB1 receptor [5]) | Ki (CB2 receptor [6]) | Fold Selectivity (CB1/CB2) (CB2 receptor [6]) | IL-12 (p70) (LPS-induced PBMCs) | L-31 (LPS-induced PBMCs) | EC50 (CB1 receptor [2]; [8]) | EC50 (CB2 receptor [4])
CCCCCCC(C)(C)c1cc(O)c2c(c1)OC(C)(C)[C@@H]1CC=C(C(=O)NC3CC(F)(F)C3)C[C@@H]21 [Compound 89, (6aR,10aR)-N-(3,3-difluorocyclobutyl)-1-hydroxy-6,6-dimethyl-3-(2-methyloctan-2-yl)-6a,7,10,10a-tetrahydro-6H-benzo[c]chromene-9-carboxamide] | −14.0 fold change | −4.8 fold change | −3.8 fold change | −237.0 fold change | −4.2 fold change | −960.1 fold change | −143.8 fold change | −35.6 fold change | 43.6 nM | 33 nM | 1.3 nM | 34.6 | 1.9 nM | 62 nM | 4.3 nM | 14.4 | – | – | – | –
CCCCCCC(C)(C)c1cc(O)c2c(c1)OC(C)(C)[C@@H]1CC=C(C(=O)NC3(C(F)(F)F)CC3)C[C@@H]21 [Compound 99, (6aR,10aR)-1-hydroxy-N-(1-trifluoromethyl-cyclopropyl)-6,6-dimethyl-3-(2-methyloctan-2-yl)-6a,7,10,10a-tetrahydro-6H-benzo[c]chromene-9-carboxamide] | 1.2 fold change | 1.2 fold change | −1.4 fold change | −2.6 fold change | −1.0 fold change | −7.0 fold change | −3.3 fold change | −1.4 fold change | 19.1 nM | 32.5 nM | 1.3 nM | 14.9 | 1.2 nM | 8.9 nM | 2 nM | 4.5 | −1.6 fold change | −1.1 fold change | – | –
CCCCC(C)(C)c1cc(O)c2c(c1)OC(C)(C)[C@@H]1CC=C(C(=O)O)C[C@@H]21 [Compound 109] | 1.2 fold change | −3.3 fold change | −1.5 fold change | −1.4 fold change | −1.0 fold change | −1.3 fold change | −5.0 fold change | −1.3 fold change | 1220 nM | – | 148 nM | 8.3 | 58.1 nM | > 3000 nM | > 3000 nM | – | −1.6 fold change | −1.5 fold change | > 3000 nM | –
CCCC(C)(C)c1cc(O)c2c(c1)OC(C)(C)[C@@H]1CC=C(C(=O)O)C[C@@H]21 [Compound 110, (6aR,10aR)-1-hydroxy-6,6-dimethyl-3-(2-methylpentan-2-yl)-6a,7,10,10a-tetrahydro-6H-benzo[c]chromene-9-carboxylic acid] | 1.3 fold change | −1.5 fold change | −1.3 fold change | −1.2 fold change | −1.0 fold change | −1.0 fold change | −3.0 fold change | −1.0 fold change | > 3000 nM | – | 211 nM | >14 | – | > 3000 nM | > 3000 nM | – | −1.1 fold change | −1.3 fold change | > 3000 nM | 37.4 nM
